# Calls of active or inactive are those of the source.
# Experiments:
# cells [1] = assay type: functional, cell-based
# cells [2] = assay type: functional, cell-based; remark: listed apart in the source
# [3] = biological target: FAD-linked sulfhydryl oxidase ALR (Homo sapiens, UniProt P55789); assay: ALR-catalysed DTT oxidation blockers – biochemical, H2O2 detection, luminescence, cherry-pick, dose response (AID 493248)
# [4] = microbe, parasite or virus in culture; assay type: functional; settings: Mycobacterium tuberculosis
# [5] = Luminescence Cell-Based Dose Retest to Confirm Inhibitors of Cancer Stem Cells. [Related pubchem assays (depositor defined):AID2717, AID2721]; assay type: functional; settings: Homo sapiens
# [6] = biological target: T1, Ubiquitin-conjugating enzyme E2 N (Homo sapiens, UniProt P61088); assay type: functional;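 further: Dose-response confirmation in a TR-FRET assay detecting UBC13-driven polyubiquitin chain formation, inhibition measured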
# T1 sequence (P61088 whole entry): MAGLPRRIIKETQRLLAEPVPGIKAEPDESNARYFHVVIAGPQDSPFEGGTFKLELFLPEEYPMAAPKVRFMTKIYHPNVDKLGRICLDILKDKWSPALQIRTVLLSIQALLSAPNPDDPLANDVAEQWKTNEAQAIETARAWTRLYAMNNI
# Nonstructural protein 1 = Nonstructural protein 1 (Influenza A virus, UniProt Q194T2); assay type: functional, Influenza A virus (A/California/07/2009(H1N1))
# Protein RecA = biological target: T2, Protein RecA (Mycobacterium tuberculosis, UniProt P9WHJ3); assay: Fluorescence Cell-Free Homogeneous Dose Retest to Identify Inhibitors of RecA-Intein Splicing Activity. [Related pubchem assays (depositor defined):AID2097, AID2223, AID489010, AID492950]; assay type: functional
# T2 sequence (P9WHJ3 whole entry): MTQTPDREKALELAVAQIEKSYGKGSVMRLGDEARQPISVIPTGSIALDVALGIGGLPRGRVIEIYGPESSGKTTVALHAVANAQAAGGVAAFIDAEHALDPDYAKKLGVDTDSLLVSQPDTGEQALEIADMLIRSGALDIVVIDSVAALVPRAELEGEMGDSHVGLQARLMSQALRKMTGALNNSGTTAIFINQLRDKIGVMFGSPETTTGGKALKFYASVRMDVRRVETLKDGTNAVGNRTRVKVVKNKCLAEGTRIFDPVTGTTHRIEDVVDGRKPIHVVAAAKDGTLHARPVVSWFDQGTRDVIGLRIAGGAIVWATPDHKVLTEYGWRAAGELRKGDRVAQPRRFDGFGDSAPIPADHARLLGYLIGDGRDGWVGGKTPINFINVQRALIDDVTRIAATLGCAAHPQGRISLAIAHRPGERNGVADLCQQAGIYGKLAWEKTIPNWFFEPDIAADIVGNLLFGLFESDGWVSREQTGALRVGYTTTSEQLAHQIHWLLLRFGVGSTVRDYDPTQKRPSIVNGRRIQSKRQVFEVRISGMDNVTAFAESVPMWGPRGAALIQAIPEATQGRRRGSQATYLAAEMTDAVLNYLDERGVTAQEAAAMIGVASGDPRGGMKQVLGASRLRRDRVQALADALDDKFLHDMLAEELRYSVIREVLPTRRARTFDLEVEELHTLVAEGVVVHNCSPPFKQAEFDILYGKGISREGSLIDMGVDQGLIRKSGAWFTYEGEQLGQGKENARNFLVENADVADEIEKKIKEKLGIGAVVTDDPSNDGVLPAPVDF
# [7] = biological target: T3, Replicative DNA helicase DnaB (Mycobacterium tuberculosis, UniProt P9WMR3); assay: DnaB intein splicing inhibitors, dose response, biochemical, cell-free fluorescence (AID 449749); assay type: functional
# T3 sequence (P9WMR3 whole entry): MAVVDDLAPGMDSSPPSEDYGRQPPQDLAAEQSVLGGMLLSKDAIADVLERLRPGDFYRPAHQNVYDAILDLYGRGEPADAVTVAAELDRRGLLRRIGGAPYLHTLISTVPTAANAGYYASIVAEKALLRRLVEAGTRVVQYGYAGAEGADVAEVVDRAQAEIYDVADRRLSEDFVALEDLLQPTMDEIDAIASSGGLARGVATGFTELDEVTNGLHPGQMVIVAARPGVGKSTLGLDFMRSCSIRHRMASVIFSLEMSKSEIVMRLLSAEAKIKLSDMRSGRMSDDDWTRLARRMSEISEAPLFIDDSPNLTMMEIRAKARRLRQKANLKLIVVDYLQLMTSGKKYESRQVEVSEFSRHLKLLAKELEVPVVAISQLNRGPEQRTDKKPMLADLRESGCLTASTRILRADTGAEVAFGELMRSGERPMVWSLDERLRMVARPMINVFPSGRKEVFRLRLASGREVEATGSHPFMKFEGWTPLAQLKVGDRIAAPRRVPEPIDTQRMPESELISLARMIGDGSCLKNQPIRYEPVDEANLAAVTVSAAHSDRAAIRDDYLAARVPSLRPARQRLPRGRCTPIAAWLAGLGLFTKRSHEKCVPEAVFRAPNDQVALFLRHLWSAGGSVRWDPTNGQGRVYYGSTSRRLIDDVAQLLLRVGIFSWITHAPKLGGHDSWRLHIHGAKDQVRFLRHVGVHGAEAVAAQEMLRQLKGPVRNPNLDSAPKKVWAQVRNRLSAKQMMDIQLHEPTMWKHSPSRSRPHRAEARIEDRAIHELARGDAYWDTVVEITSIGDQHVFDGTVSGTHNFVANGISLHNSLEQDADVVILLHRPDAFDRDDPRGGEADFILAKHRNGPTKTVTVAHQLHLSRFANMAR
# Genome polyprotein = Genome polyprotein (dengue virus type 2, UniProt P29990); assay: flavivirus cap methylation enzyme inhibition – biochemical, confirmation dose response, primary screen (AID 588689); assay type: functional
# [8] = viability of PTEN-deleted HCT116 cells – cell-based, HCT116 PTEN knockout, dose response (AID 1047); assay type: functional;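 further: HCT116 colon tumor cells with PTEN knocked out; cells exposed to compound for 60 hours before readout; potency for loss of cell viability measured by luminescence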
# [9] = viability of HCT116 lacking mutant beta-catenin – cell-based, human colon tumor, dose response (AID 1045); assay type: functional;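 further: HCT116 colon tumor cells with beta catenin knocked out; cells exposed to compound for 60 hours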
# Cytochrome P450 2C9 [10] = biological target: T4, Cytochrome P450 2C9 (Homo sapiens, UniProt P11712)
# [11] = biological target: Eukaryotic translation initiation factor 4E (Mus musculus, UniProt P63073); assay: blockers of eIF4G binding by eIF4E – biochemical, TR-FRET, dose response (AID 855); assay type: functional;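 further: potency for disrupting eIF4E binding to eIF4GI seen as loss of FRET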
# [12] = reduction of Shn3 3'UTR-driven luciferase in osteoblasts – cell-based, Clone20 osteoblasts, firefly luciferase, cherry-picked, dose response (AID 624132); assay type: functional;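 further: firefly luciferase luminescence from reporter carrying the Shn3 3'UTR in osteoblasts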
# [13] = loss of viability in HepG2 cells – cell-based, CellTiter-Glo, cherry-picked, cytotoxicity control for Shn3 inhibitor project, dose response (AID 624134); assay type: functional
# [14] = non-specific 3'UTR reporter inhibition in Clone20-Shn3RL – cell-based, Renilla luciferase, cherry-picked, counter-screen for Shn3 inhibitor project, dose response (AID 624133); assay type: functional
# Large T antigen = Large T antigen (Simian virus 40, UniProt P03070); assay type: functional, Betapolyomavirus macacae;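 further: Confirmatory-stage PubChem screen for compounds that inhibit SV40 T antigen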
# Cytochrome P450 2D6 = Cytochrome P450 2D6 (Homo sapiens, UniProt P10635);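 further: CYP2D6 member of a cytochrome P450 panel assay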
# Cytochrome P450 2C9 [15] = biological target: T4, Cytochrome P450 2C9; remark: listed apart in the source
# [16] = biological target: Heat shock protein HSP 90-alpha (Homo sapiens, UniProt P07900); assay type: functional, organism-based
# [17] = system: Streptococcus sp. 'group A'; assay: Streptococcus pyogenes SK(-)GAS viability under kanamycin – luminescence, BacTiterGlo, confirmation, counter-screen for streptokinase expression inhibitor project, dose response (AID 1900); assay type: functional, organism-based
# Streptococcus = assay: GAS UMAA2166 growth inhibition – luminescence, BacTiterGlo, counter-screen for streptokinase expression inhibitor project, dose response (AID 1915); assay type: functional, organism-based;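 further: potency for reduction of bacterial viability or growth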
# Streptokinase A = biological target: T5, Streptokinase A (Streptococcus pyogenes serotype M1, UniProt P10520); assay: viability-normalized secreted streptokinase activity reduction – plasminogen activation absorbance, OD405, dose response (AID 1914); assay type: functional, Streptococcus pyogenes M1 GAS;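 further: secreted streptokinase activity via plasminogen activation per viability signal from cell pellet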
# T5 sequence (P10520 whole entry): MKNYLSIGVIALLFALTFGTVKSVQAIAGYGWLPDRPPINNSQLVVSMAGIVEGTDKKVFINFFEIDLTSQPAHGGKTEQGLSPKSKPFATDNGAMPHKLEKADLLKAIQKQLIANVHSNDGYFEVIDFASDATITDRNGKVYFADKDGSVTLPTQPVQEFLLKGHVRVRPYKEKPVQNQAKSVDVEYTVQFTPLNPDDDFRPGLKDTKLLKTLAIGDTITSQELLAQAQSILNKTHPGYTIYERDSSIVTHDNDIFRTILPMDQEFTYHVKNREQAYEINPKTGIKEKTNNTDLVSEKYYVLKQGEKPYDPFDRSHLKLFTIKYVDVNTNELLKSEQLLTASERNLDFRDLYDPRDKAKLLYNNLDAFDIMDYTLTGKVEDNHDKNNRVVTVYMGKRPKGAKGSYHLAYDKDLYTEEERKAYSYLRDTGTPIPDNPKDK
# Chain of Nonstructural protein 1 (Q194T2 whole entry): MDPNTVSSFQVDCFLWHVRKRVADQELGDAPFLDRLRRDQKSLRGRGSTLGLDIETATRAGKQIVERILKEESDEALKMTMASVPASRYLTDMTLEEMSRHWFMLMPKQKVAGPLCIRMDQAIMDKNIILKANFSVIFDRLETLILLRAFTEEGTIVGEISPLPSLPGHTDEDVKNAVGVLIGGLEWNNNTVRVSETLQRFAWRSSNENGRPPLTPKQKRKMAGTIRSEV
# Chain of Genome polyprotein (P29990 2492-3391 limits assumed): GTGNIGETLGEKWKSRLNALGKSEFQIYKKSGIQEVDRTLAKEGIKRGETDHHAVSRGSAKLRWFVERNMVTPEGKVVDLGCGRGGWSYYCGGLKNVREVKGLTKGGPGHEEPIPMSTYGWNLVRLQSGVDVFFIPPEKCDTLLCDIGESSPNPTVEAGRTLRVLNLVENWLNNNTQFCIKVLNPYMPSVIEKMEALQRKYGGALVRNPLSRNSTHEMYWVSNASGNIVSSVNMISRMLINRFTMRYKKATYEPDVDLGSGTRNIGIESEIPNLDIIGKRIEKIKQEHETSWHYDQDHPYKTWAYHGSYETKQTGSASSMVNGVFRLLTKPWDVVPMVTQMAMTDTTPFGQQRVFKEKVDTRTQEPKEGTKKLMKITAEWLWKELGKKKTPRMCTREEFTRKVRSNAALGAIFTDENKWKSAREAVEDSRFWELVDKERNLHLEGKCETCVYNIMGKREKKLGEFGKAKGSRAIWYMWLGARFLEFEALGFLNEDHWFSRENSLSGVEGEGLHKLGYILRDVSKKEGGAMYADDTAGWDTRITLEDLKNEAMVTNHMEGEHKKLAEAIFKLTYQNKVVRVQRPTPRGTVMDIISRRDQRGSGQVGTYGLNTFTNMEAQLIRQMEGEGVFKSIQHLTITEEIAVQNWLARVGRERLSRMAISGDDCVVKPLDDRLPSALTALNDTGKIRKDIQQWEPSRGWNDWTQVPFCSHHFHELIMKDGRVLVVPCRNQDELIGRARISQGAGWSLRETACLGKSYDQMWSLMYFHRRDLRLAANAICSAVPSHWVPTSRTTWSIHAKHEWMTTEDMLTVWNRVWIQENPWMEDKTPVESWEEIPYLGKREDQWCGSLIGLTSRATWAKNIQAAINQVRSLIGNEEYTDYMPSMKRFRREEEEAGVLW
# T4 sequence (P11712 whole entry): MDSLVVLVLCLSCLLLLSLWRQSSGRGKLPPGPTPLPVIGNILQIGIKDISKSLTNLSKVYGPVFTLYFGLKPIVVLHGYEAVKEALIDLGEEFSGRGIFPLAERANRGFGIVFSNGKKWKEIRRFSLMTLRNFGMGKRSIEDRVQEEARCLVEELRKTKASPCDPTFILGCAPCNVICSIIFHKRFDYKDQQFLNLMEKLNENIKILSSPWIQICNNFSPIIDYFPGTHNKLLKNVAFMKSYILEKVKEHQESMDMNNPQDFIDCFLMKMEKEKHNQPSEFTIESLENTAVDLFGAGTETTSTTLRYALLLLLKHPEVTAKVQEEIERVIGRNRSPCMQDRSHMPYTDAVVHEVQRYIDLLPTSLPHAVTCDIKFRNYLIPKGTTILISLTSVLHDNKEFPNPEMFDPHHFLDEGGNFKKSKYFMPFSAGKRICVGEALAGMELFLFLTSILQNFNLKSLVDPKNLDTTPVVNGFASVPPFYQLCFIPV
# Chain of Eukaryotic translation initiation factor 4E (P63073 whole entry): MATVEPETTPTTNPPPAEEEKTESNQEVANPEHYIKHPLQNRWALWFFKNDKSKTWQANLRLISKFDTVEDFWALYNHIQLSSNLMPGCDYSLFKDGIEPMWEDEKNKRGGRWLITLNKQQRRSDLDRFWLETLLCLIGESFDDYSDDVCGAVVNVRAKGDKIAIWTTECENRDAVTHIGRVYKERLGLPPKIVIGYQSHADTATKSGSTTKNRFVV
# Chain of FAD-linked sulfhydryl oxidase ALR (P55789 whole entry): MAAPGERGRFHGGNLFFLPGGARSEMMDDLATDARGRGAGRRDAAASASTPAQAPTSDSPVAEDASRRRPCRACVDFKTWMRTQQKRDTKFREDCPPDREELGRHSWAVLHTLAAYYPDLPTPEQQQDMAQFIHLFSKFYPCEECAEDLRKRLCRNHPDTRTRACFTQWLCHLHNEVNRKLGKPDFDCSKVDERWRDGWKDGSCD
# Chain of Cytochrome P450 2D6 (P10635 whole entry): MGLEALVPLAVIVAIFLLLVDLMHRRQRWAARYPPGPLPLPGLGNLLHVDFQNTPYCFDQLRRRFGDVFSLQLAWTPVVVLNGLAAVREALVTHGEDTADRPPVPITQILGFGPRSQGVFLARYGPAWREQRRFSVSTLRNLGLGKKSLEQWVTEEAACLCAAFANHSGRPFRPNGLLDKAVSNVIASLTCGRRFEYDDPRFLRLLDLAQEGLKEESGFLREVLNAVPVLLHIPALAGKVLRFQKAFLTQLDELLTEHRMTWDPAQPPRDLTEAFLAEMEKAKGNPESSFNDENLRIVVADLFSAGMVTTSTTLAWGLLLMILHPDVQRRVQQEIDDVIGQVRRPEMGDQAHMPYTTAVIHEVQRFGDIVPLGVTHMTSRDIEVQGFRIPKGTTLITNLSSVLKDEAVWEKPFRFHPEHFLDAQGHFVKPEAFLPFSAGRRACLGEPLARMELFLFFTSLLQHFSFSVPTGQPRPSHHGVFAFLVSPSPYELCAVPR
# Chain of Large T antigen (P03070 whole entry): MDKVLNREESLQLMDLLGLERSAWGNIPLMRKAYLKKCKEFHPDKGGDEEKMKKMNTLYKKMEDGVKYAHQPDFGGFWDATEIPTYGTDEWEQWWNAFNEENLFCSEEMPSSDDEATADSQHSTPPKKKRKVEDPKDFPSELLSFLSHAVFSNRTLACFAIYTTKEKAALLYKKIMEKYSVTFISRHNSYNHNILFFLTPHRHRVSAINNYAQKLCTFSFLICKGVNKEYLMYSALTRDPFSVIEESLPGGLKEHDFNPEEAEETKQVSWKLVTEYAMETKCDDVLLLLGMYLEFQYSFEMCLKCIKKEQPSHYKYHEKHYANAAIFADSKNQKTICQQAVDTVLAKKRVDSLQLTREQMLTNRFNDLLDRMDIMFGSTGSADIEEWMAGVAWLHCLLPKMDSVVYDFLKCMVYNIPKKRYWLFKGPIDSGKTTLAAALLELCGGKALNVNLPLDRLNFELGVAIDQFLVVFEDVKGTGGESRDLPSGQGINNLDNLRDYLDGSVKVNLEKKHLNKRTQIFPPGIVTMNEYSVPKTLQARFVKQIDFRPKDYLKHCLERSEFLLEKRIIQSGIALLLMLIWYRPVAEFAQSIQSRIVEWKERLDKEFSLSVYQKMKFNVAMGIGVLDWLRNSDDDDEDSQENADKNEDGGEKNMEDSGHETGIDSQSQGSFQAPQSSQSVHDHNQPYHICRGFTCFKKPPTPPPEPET
smiles,measurement,setting,value
O=C1CCCC(=O)C1=CNc1cccc(C(F)(F)F)c1,EC50,cells [1],> 350 µM (not active)
same,EC50,cells [2],> 350 µM (not active)
Cc1cc(C)c2c(c1)-c1cc(C)nn1C(c1cccnc1)N2 (centres undefined),AC50,[3],1.77 µM (active)
COC(=O)C1=C(C)N(Cc2ccccc2)C(NCc2cccc(Cl)c2)=N[C@H]1c1ccccc1,CC50,[4],18.5 µM (active)
same,AC50,[5],6.12 µM (active)
same,IC50,[6],> 20 µM (inactive)
COC(=O)c1ccc(CSc2nc3c(c(=O)n2-c2ccc(F)cc2)SCC3)o1,EC50,cells [1],> 350 µM (not active)
same,EC50,cells [2],> 350 µM (not active)
O=C1NC(=S)N(C2CC2)C(=O)/C1=C/NNC(=O)c1ccccc1,IC50,Nonstructural protein 1,12.7 µM (active)
COc1cc(N=Nc2cccc(S(N)(=O)=O)c2)c2ccccc2c1N,IC50,Nonstructural protein 1,14.2 µM (active)
same,EC50,Protein RecA,11.5 µM (active)
same,AC50,[7],5.37 µM (active)
CCc1nc(SCc2cccnc2)nc(O)c1C,AC50,[3],0.563 µM (active)
Cc1csc(NC(=O)CSc2ccc(-c3ccccn3)nn2)n1,IC50,Nonstructural protein 1,10.2 µM (active)
COc1ccc(C2CC(c3ccccc3)=NN2c2ccc(Cl)c(C(=O)O)c2)cc1 (centres undefined),IC50,Genome polyprotein,39.9 µM (active)
O=C(Nc1cccc(Cl)c1)Nc1nc(-c2ccc(Cl)cc2)cs1,EC50,[8],28.1 µM (active)
same,EC50,[9],94.2 µM (active)
CC1(C)C(=O)N(CCN2CCC(C(=O)c3ccc(F)cc3)CC2)c2ccccc21,AC50,Cytochrome P450 2C9 [10],inconclusive
COc1ccc2c(c1)CC[C@@H]1[C@@H]2CC[C@]2(C)C(=O)CC[C@@H]12,IC50,[11],> 64 µM (inactive)
Cc1ccc(-c2nn(-c3ccccc3)cc2CN(Cc2ccccc2)C(=O)CCC(=O)O)o1,AC50,[3],0.471 µM (active)
c1ccc2c(-c3n[nH]cc3CNCCCn3ncc4ccccc43)cccc2c1,AC50,[12],3.25 µM (active)
same,AC50,[13],56.7 µM (active)
same,AC50,[14],4.62 µM (active)
CC(=O)Oc1ccc2c(c1)OC(c1ccccc1)CC21CC(C)(C)NC(=S)N1 (centres undefined),IC50,[11],> 64 µM (inactive)
Nc1ncc(N=Nc2cc(C(=O)O)ccc2Cl)s1,IC50,Genome polyprotein,73.6 µM (active)
same,IC50,Large T antigen,67.1 µM (active)
CC1Cc2ccccc2N1C(=O)C1CCCCN1S(=O)(=O)c1ccccc1 (centres undefined),AC50,Cytochrome P450 2C9 [10],inconclusive
CCOc1ccc(NC(=O)CC(NCc2ccccn2)C(=O)O)cc1 (centres undefined),IC50,Nonstructural protein 1,1.28 µM (active)
COC(=O)c1[nH]c2ccc(C)cc2c1NS(=O)(=O)c1ccc(F)cc1,AC50,[3],1.81 µM (active)
CCc1nnc(NC(=O)c2cc(Cl)ccn2)s1,IC50,Nonstructural protein 1,11.1 µM (active)
Cc1ccc(Cl)cc1N1CCN(CC(=O)NC2CCCc3ccccc32)CC1 (centres undefined),CC50,[4],> 40 µM (active)
same,AC50,[5],5.48 µM (active)
COc1cccc(CNC(=O)Nc2cccs2)c1,AC50,[3],10.4 µM (active)
Cc1ccc2c(c1)C1CN(C)CCC1N2C(=O)/C(C#N)=C/c1ccc2c(c1)OCO2 (centres undefined),IC50,[6],> 20 µM (inactive)
O=C(CCN1CCOCC1)c1ccccc1,EC50,[8],31.9 µM (active)
same,EC50,[9],24.8 µM (active)
O=C(NCCN1CCOCC1)c1nn2c(c1Cl)NC(c1ccccc1)CC2C(F)(F)F (centres undefined),IC50,[11],> 64 µM (inactive)
same,AC50,Cytochrome P450 2D6,35.5 µM (inconclusive)
same,AC50,Cytochrome P450 2C9 [15],35.5 µM (inconclusive)
O=C1OC(c2ccccc2)(c2cc(Br)c(O)c(Br)c2)c2ccccc21 (centres undefined),IC50,Genome polyprotein,35.2 µM (active)
same,AC50,[16],4.1 µM (active)
C/C(=N\NC(=S)NCC(C)(C)C)c1cc(F)cc(F)c1O,CC50,[4],22.9 µM (active)
same,EC50,[17],1.32 µM (active)
same,EC50,Streptococcus,2.68 µM (active)
same,EC50,Streptokinase A,501 nM (active)
C/C(=N\NC(=O)c1cccc(N/N=C(\C)c2ccncc2)c1)c1ccncc1,AC50,[3],0.205 µM (active)
Cc1ccc(-c2ccc(/C=N\NC(=O)c3cc4c(ccc5ccccc54)o3)o2)cc1[N+](=O)[O-],EC50,[8],5.36 µM (active)
same,EC50,[9],6.21 µM (active)
Clc1ccc(-c2ccc(/C=N/Nc3nncc(-c4ccccc4)n3)o2)cc1,EC50,[8],16.9 µM (active)
same,EC50,[9],14.5 µM (active)
CCCCCC(=O)Nc1ccc(C(=O)N/N=C/c2ccc([N+](=O)[O-])cc2)cc1,EC50,[8],3.92 µM (active)
same,EC50,[9],4.99 µM (active)
Cc1ncc(CO)c(/C=N/NC(=O)c2cccc(S(=O)(=O)N3CCCC3)c2)c1O,IC50,Nonstructural protein 1,4.73 µM (active)
same,IC50,[6],> 20 µM (inactive)

# — ChEMBL document CHEMBL1201862, “PubChem BioAssay data set” (2004)
